For orientation: IC50 means the midpoint of a concentration-inhibition curve. A high value points to lower potency.

The source of these data is patent US10214542B2, “Modified macrocyclic compounds” (BAYER PHARMA AKTIENGESELLSCHAFT, priority 2015, dated 2019).

One test has as its target T1, CDK9/CycT1 (Homo sapiens, UniProt P50750).
T1 construct: Recombinant full-length His-tagged human CDK9 and CycT1; His; purchased Invitrogen PV4131; host or cells: insect cells
The experiment in a line: CDK9/CycT1 kinase assay (TR-FRET, Method 1a). As to conditions: 10 μM ATP; for IC50: Method 1a; for Selectivity CDK9 over CDK2: IC50 (CDK2)/IC50 (CDK9): Methods 1a and 2a. It is filed as biochemical. The source says: 1a. CDK9/CycT1 Kinase Assay:
CDK9/CycT1-inhibitory activity of compounds of the present invention was quantified employing the CDK9/CycT1 TR-FRET assay as described in the following paragraphs:
Recombinant full-length His-tagged human CDK9 and CycT1, expressed in insect cells and purified by Ni-NTA affinity chromatography, were purchased from Invitrogen (Cat. No PV4131). As substrate for the kinase reaction biotinylated peptide biotin-Ttds-YISPLKSPYKISEG (C-terminus in amid form) was used which can be purchased e.g. from the company JERINI Peptide Technologies (Berlin, Germany).
(§1) For the assay 50 nl of a 100 fold concentrated solution of the test compound in DMSO was pipetted into a black low volume 384 well microtiter plate (Greiner Bio-One, Frickenhausen, Germany), 2 μl of a solution of CDK9/CycT1 in aqueous assay buffer [50 mM Tris/HCl pH 8.0, 10 mM MgCl2, 1.0 mM dithiothreitol, 0.1 mM sodium ortho-vanadate, 0.01% (v/v) Nonidet-P40 (Sigma)] were added and the mixture was incubated for 15 min at 22° C. to allow pre-binding of the test compounds to the enzyme before the start of the kinase reaction. […] The concentration of CDK9/CycT1 was adjusted depending of the activity of the enzyme lot and was chosen appropriate to have the assay in the linear range, typical concentrations were in the range of 1 μg/mL. The reaction was stopped by the addition of 5 μl of a solution of TR-FRET detection reagents (0.2 μM streptavidine-XL665 [Cisbio Bioassays, Codolet, France] and 1 nM anti-RB(pSer807/pSer811)-antibody from BD Pharmingen [#558389] and 1.2 nM LANCE EU-W1024 labeled anti-mouse IgG antibody [Perkin-Elmer, product no. AD0077]) in an aqueous EDTA-solution (100 mM EDTA, 0.2% (w/v) bovine serum albumin in 100 mM HEPES pH 7.5).
(§2) The resulting mixture was incubated 1 h at 22° C. to allow the formation of complex between the phosphorylated biotinylated peptide and the detection reagents. Subsequently the amount of phosphorylated substrate was evaluated by measurement of the resonance energy transfer from the Eu-chelate to the streptavidine-XL. Therefore, the fluorescence emissions at 620 nm and 665 nm after excitation at 350 nm was measured in a HTRF reader, e.g. a Rubystar (BMG Labtechnologies, Offenburg, Germany) or a Viewlux (Perkin-Elmer). The ratio of the emissions at 665 nm and at […] was taken as the measure for the amount of phosphorylated substrate. The data were normalised (enzyme reaction without inhibitor=0% inhibition, all other assay components but no enzym=100% inhibition).

The next test has as its target T2, CDK2/CycE (Homo sapiens, UniProt P24941).
T2 construct: GST; purchased ProQinase GmbH (Freiburg, Germany); host or cells: insect cells (Sf9)
Kind of test: CDK2/CycE kinase assay (TR-FRET, Method 2a). It is filed as biochemical. As to conditions: 10 μM ATP.
Excerpt: 2a. CDK2/CycE Kinase Assay:
CDK2/CycE-inhibitory activity of compounds of the present invention was quantified employing the CDK2/CycE TR-FRET assay as described in the following paragraphs:
Recombinant fusion proteins of GST and human CDK2 and of GST and human CycE, expressed in insect cells (Sf9) and purified by Glutathion-Sepharose affinity chromatography, were purchased from ProQinase GmbH (Freiburg, Germany). As substrate for the kinase reaction biotinylated peptide biotin-Ttds-YISPLKSPYKISEG (C-terminus in amid form) was used which can be purchased e.g. from the company JERINI Peptide Technologies (Berlin, Germany).
as §1, with “CDK2/CycE” for “CDK9/CycT1”, “130 ng/mL.” for “1 μg/mL.”
as §2, with “TR-FRET” for “HTRF”
On the technique in general: In TR-FRET formats the signal depends on donor and acceptor labels being close together.

T1 sequence (P50750 whole entry): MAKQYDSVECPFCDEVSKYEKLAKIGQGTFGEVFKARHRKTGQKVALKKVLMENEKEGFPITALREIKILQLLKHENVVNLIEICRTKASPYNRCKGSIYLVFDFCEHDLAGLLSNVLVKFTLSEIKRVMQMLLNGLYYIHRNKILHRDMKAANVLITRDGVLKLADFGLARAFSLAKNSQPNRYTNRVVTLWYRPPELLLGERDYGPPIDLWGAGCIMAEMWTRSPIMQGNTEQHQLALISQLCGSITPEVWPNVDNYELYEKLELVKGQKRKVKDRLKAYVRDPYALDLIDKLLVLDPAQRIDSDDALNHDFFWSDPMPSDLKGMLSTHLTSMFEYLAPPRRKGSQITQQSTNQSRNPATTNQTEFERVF
T1 sequence (O60563 whole entry partner): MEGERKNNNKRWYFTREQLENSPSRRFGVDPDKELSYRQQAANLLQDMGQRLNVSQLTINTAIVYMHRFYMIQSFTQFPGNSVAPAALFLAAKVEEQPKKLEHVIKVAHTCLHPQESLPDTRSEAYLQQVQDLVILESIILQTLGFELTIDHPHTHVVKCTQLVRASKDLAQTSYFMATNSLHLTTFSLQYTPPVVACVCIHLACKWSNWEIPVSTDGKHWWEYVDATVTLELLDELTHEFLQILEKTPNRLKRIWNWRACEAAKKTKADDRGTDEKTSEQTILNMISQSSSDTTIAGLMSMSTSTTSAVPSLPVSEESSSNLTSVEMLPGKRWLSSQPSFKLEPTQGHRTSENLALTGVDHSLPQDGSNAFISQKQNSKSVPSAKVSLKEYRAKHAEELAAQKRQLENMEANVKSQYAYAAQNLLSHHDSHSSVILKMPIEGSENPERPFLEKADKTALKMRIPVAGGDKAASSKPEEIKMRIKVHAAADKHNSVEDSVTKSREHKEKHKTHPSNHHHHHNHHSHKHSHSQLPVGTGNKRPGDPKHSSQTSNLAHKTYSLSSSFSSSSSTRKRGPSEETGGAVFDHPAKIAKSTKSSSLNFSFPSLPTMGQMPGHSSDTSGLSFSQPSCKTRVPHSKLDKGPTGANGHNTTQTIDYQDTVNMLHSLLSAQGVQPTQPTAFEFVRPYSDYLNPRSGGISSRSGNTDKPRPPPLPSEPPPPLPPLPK

`CN1CCCCOc2cc(F)ccc2-c2cc(ncc2F)Nc2cc(CS(C)(=N)=O)cc1n2` (racemic) [Example 11, (rac)-16,20-difluoro-6-methyl-9-[(S-methylsulfonimidoyl)methyl]-3,4,5,6-tetrahydro-2H-7,11-(azeno)-17,13-(metheno)-1,6,12,14-benzoxatriazacyclononadecine]: the IC50 at CDK9/CycT1 worked out at 5.1 nM; at CDK2/CycE, 34 nM. For the same compound, on CDK9/CycT1, the “Selectivity CDK9 over CDK2: IC50 (CDK2)/IC50 (CDK9)” value (shortened to “Selectivity CDK9 over CDK2: IC50”) stood at 6.7.
In the case of `CC(C)(C)OC(=O)N=S(C)(=O)Cc1cc2nc(c1)Nc1cc(c(F)cn1)-c1ccc(F)cc1OCCCCCN2` (racemic) [Example 9, (rac)-tert-butyl[{[17,21-difluoro-2,3,4,5,6,7-hexahydro-13H-12,8-(azeno)-14,18-(metheno)-1,7,13,15-benzoxatriazacycloicosin-10-yl]methyl}(methyl)oxido-λ^6-sulfanylidene]carbamate], the half-inhibitory concentration (IC50) against CDK9/CycT1 came out at 13 nM; against CDK2/CycE, 96 nM. The “Selectivity CDK9 over CDK2: IC50” value on CDK9/CycT1 is 7.4.
The like results for `CS(=N)(=O)Cc1cc2cc(c1)OCCCCNc1cc(F)ccc1-c1nc(ncc1F)N2` (racemic) [Example 16, (rac)-16,20-difluoro-9-[(S-methylsulfonimidoyl)methyl]-2,3,4,5-tetrahydro-1H-17,13-(azeno)-7,11-(metheno)-6,1,12,14-benzoxatriazacyclononadecine] were, in that order, 3.9 nM, 30 nM and 7.7.
The like results for `CSCc1cc2nc(c1)Nc1cc(c(F)cn1)-c1ccc(F)cc1OCCCN2` [Example 1, 15,19-Difluoro-8-[(methylsulfanyl)methyl]-2,3,4,5-tetrahydro-11H-10,6-(azeno)-12,16-(metheno)-1,5,11,13-benzoxatriazacyclooctadecine] were, in that order, 2.9 nM, 81.5 nM and 28.1.
The like results for `C[S+]([O-])Cc1cc2nc(c1)OCCCCc1cc(F)ccc1-c1cc(ncc1F)N2` (racemic) [Example 5, (rac)-2,18-Difluoro-9-[(methylsulfinyl)methyl]-13,14,15,16-tetrahydro-6H-7,11-(azeno)-5,1-(metheno)-12,4,6-benzoxadiazacyclooctadecine] were, in that order, 6.2 nM, 275 nM and 44.4.
Consider `C[S+]([O-])Cc1cc2nc(c1)OCCCCCc1cc(F)ccc1-c1cc(ncc1F)N2` (racemic) [Example 19, (rac)-2,19-difluoro-9-[(methylsulfinyl)methyl]-14,15,16,17-tetrahydro-6H,13H-7,11-(azeno)-5,1-(metheno)-12,4,6-benzoxadiazacyclononadecine], for which, at CDK9/CycT1, the IC50 stood at 15 nM and the “Selectivity CDK9 over CDK2: IC50” value stood at 24.7. Also, on CDK2/CycE, the IC50 stood at 371 nM.
As for `CN1CCCCOc2cc(F)ccc2-c2nc(ncc2F)Nc2cc(CS(C)(=N)=O)cc1c2` (racemic) [Example 23, (rac)-16,20-difluoro-6-methyl-9-[(S-methylsulfonimidoyl)methyl]-3,4,5,6-tetrahydro-2H,12H-13,17-(azeno)-11,7-(metheno)-1,6,12,14-benzoxatriazacyclononadecine], on CDK9/CycT1, the IC50 turned out to be 5.2 nM and the “Selectivity CDK9 over CDK2: IC50” value was 20.0. Moreover, inhibition on CDK2/CycE was half-maximal at 104 nM (IC50).
The like results for `CC(C)(C)OC(=O)N=S(C)(=O)Cc1cc2cc(c1)OCCCCNc1cc(F)ccc1-c1nc(ncc1F)N2` (racemic) [Example 15, (rac)-tert-butyl[{[16,20-difluoro-2,3,4,5-tetrahydro-1H,12H-13,17-(azeno)-11,7-(metheno)-6,1,12,14-benzoxatriazacyclononadecin-9-yl]methyl}(methyl)oxido-λ^6-sulfanylidene]carbamate] were, in that order, 8.9 nM, 29.4 and 262 nM.
